The values below come from the OligoGym collection.

HELM strings list units from the 5' end as sugar, base in round brackets, then linkage (d deoxyribose, r ribose, m 2'-O-methyl, p phosphodiester). Strings are as the collection lists them, not checked against the first reports. ss, as = sense and antisense strand; [lna] = locked nucleic acid (LNA); [hna] = hexitol nucleic acid; [s4r] = 4'-thioribose; [fl2r] = 2'-fluoro
Also: test system not given here.

The conditions of the data set: siRNA.
Substance “RNA1{r(G)p.r(A)p.r(C)p.r(G)p.r(U)p.r(A)p.r(A)p.r(A)p.r(C)p.r(G)p.r(G)p.r(C)p.r(C)p.r(A)p.r(C)p.r(A)p.r(A)p.r(G)p.r(U)p.r(U)p.r(C)}|RNA2{r(A)p.r(C)p.[lna](T)p.r(U)p.r(G)p.[lna](T)p.r(G)p.r(G)p.r(C)p.r(C)p.r(G)p.r(U)p.r(U)p.[lna](T)p.r(A)p.r(C)p.r(G)p.[lna](T)p.r(C)p.[lna](G)p.[lna](C)}$$$RNA1{StrandType:ss}|RNA2{StrandType:as}$” came in with a target mRNA knockdown of 0%.
The figure for “RNA1{m(A)p.r(G)p.m(U)p.r(C)p.m(C)p.r(C)p.m(U)p.r(G)p.m(G)p.r(A)p.m(G)p.r(C)p.m(C)p.r(U)p.r(U)p.r(A)p.m(A)p.r(A)p.m(C)p.r(T)p.r(T)}|RNA2{r(G)p.r(U)p.r(U)p.r(U)p.r(A)p.r(A)p.r(G)p.r(G)p.r(C)p.r(U)p.r(C)p.r(C)p.r(A)p.r(G)p.r(G)p.r(G)p.r(A)p.r(C)p.r(U)p.r(T)p.r(T)}$$$RNA1{StrandType:ss}|RNA2{StrandType:as}$” is 68%; for “RNA1{[fl2r](U)p.r(A)p.r(A)p.r(C)p.r(C)p.r(C)p.[fl2r](C)p.r(A)p.r(A)p.r(G)p.r(A)p.r(A)p.[fl2r](C)p.r(G)p.r(G)p.r(G)p.r(C)p.r(U)p.r(U)p.r(T)p.r(T)}|RNA2{r(A)p.r(A)p.r(G)p.r(C)p.r(C)p.r(C)p.[fl2r](G)p.r(U)p.r(U)p.r(C)p.r(U)p.[fl2r](U)p.r(G)p.r(G)p.r(G)p.r(G)p.r(U)p.[fl2r](U)p.r(A)p.r(T)p.r(T)}$$$RNA1{StrandType:ss}|RNA2{StrandType:as}$” it is 72%; for “RNA1{m(G)p.r(G)p.m(C)p.r(G)p.m(G)p.r(G)p.m(C)p.r(U)p.m(C)p.r(U)p.m(U)p.r(U)p.m(C)p.r(C)p.m(U)p.r(A)p.m(U)p.r(U)p.m(C)p.r(T)p.r(T)}|RNA2{r(G)p.r(A)p.r(A)p.r(U)p.r(A)p.r(G)p.r(G)p.r(A)p.r(A)p.r(A)p.r(G)p.r(A)p.r(G)p.r(C)p.r(C)p.r(C)p.r(G)p.r(C)p.r(C)p.r(T)p.r(T)}$$$RNA1{StrandType:ss}|RNA2{StrandType:as}$” it is 51%.
As for “RNA1{r(C)p.r(G)p.r(A)p.r(A)p.r(A)p.r(G)p.[fl2r](U)p.r(G)p.[fl2r](U)p.r(A)p.r(U)p.r(C)p.r(C)p.r(G)p.r(A)p.r(A)p.r(G)p.r(A)p.r(C)p.r(T)p.r(T)}|RNA2{r(G)p.r(U)p.r(C)p.r(U)p.r(U)p.r(C)p.r(G)p.r(G)p.r(A)p.[fl2r](U)p.r(A)p.[fl2r](C)p.r(A)p.r(C)p.r(U)p.r(U)p.r(U)p.r(C)p.r(G)p.r(T)p.r(T)}$$$RNA1{StrandType:ss}|RNA2{StrandType:as}$”, the target mRNA knockdown was found to be 75%.
“RNA1{r(C)p.r(U)p.r(U)p.r(A)p.r(C)p.r(G)p.r(C)p.r(U)p.r(G)p.r(A)p.r(G)p.r(U)p.r(A)p.r(C)p.r(U)p.r(U)p.r(C)p.r(G)p.r(A)p.r(T)p.r(T)}|RNA2{r(T)p.r(C)p.r(G)p.r(A)p.r(A)p.r(G)p.r(U)p.r(A)p.r(C)p.r(U)p.r(C)p.r(A)p.r(G)p.r(C)p.[lna](G)p.r(U)p.r(A)p.r(A)p.r(G)p.[lna](T)p.[lna](T)}$$$RNA1{StrandType:ss}|RNA2{StrandType:as}$” came in with a target mRNA knockdown of 87%.
To “RNA1{r(G)p.r(A)p.r(C)p.r(G)p.r(U)p.r(A)p.r(A)p.r(A)p.r(C)p.r(G)p.r(G)p.r(C)p.r(C)p.r(A)p.r(C)p.r(A)p.r(A)p.r(G)p.[hna](U)p.[hna](U)p.r(C)}|RNA2{r(A)p.r(C)p.r(U)p.r(U)p.r(G)p.r(U)p.r(G)p.r(G)p.r(C)p.r(C)p.r(G)p.r(U)p.r(U)p.r(U)p.r(A)p.r(C)p.r(G)p.r(U)p.[lna](C)p.[lna](G)p.r(C)}$$$RNA1{StrandType:ss}|RNA2{StrandType:as}$” belongs 83.8%; to “RNA1{[s4r](C)p.[s4r](G)p.r(U)p.r(A)p.r(C)p.r(G)p.r(C)p.r(G)p.r(G)p.r(A)p.r(A)p.r(U)p.r(A)p.r(C)p.r(U)p.r(U)p.r(C)p.[s4r](G)p.[s4r](A)p.r(T)p.r(T)}|RNA2{[s4r](U)p.[s4r](C)p.r(G)p.r(A)p.r(A)p.r(G)p.r(U)p.r(A)p.r(U)p.r(U)p.r(C)p.r(C)p.r(G)p.r(C)p.r(G)p.r(U)p.r(A)p.[s4r](C)p.[s4r](G)p.r(T)p.r(T)}$$$RNA1{StrandType:ss}|RNA2{StrandType:as}$”, 85.3%; to “RNA1{r(A)p.r(A)p.r(C)p.r(C)p.r(C)p.r(A)p.r(C)p.r(C)p.r(A)p.r(C)p.r(A)p.r(G)p.r(C)p.m(U)p.m(A)p.r(G)p.r(A)p.r(A)p.r(C)p.r(U)p.r(U)}|RNA2{r(A)p.r(A)p.r(G)p.r(U)p.r(U)p.r(C)p.r(U)p.r(A)p.r(G)p.r(C)p.r(U)p.r(G)p.r(U)p.r(G)p.r(G)p.r(U)p.r(G)p.r(G)p.r(G)p.r(U)p.r(U)}$$$RNA1{StrandType:ss}|RNA2{StrandType:as}$”, 79%.
“RNA1{r(U)p.r(C)p.r(C)p.r(G)p.r(G)p.r(C)p.[fl2r](U)p.r(A)p.r(A)p.r(C)p.r(U)p.r(C)p.r(U)p.r(G)p.r(A)p.r(G)p.r(G)p.r(A)p.r(C)p.r(T)p.r(T)}|RNA2{r(G)p.r(U)p.r(C)p.r(C)p.r(U)p.r(C)p.r(A)p.r(G)p.r(A)p.r(G)p.r(U)p.[fl2r](U)p.r(A)p.r(G)p.r(C)p.r(C)p.r(G)p.r(G)p.r(A)p.r(T)p.r(T)}$$$RNA1{StrandType:ss}|RNA2{StrandType:as}$”: the target mRNA knockdown came out at 82%.
To “RNA1{r(C)p.r(U)p.r(C)p.r(C)p.r(G)p.r(A)p.m(C)p.m(A)p.r(G)p.r(A)p.m(U)p.r(G)p.r(A)p.r(A)p.r(G)p.r(G)p.r(A)p.r(A)p.r(A)p.r(T)p.r(T)}|RNA2{r(U)p.r(U)p.r(U)p.r(C)p.r(C)p.r(U)p.r(U)p.m(C)p.r(A)p.r(U)p.r(C)p.m(U)p.m(G)p.r(U)p.r(C)p.r(G)p.r(G)p.r(A)p.r(G)p.r(T)p.r(T)}$$$RNA1{StrandType:ss}|RNA2{StrandType:as}$” belongs 70%; to “RNA1{[s4r](A)p.[s4r](A)p.[s4r](A)p.[s4r](C)p.r(A)p.r(U)p.r(G)p.r(C)p.r(A)p.r(G)p.r(A)p.r(A)p.r(A)p.r(A)p.r(U)p.[s4r](G)p.[s4r](C)p.[s4r](U)p.[s4r](G)p.r(T)p.r(T)}|RNA2{[s4r](C)p.[s4r](A)p.r(G)p.r(C)p.r(A)p.r(U)p.r(U)p.r(U)p.r(U)p.r(C)p.r(U)p.r(G)p.r(C)p.r(A)p.r(U)p.r(G)p.r(U)p.[s4r](U)p.[s4r](U)p.r(T)p.r(T)}$$$RNA1{StrandType:ss}|RNA2{StrandType:as}$”, 66.3%.
With “RNA1{r(G)p.m(C)p.r(A)p.r(G)p.r(C)p.r(A)p.r(C)p.r(G)p.r(A)p.r(C)p.r(U)p.r(U)p.r(C)p.r(U)p.r(U)p.r(C)p.r(A)p.r(A)p.r(G)p.r(U)p.r(U)}|RNA2{r(C)p.r(U)p.r(U)p.r(G)p.r(A)p.r(A)p.r(G)p.r(A)p.r(A)p.r(G)p.r(U)p.r(C)p.r(G)p.r(U)p.r(G)p.r(C)p.r(U)p.r(G)p.r(C)p.r(U)p.r(U)}$$$RNA1{StrandType:ss}|RNA2{StrandType:as}$”, the target mRNA knockdown worked out at 71.7%.
As to “RNA1{[fl2r](C)p.r(C)p.[fl2r](C)p.r(U)p.[fl2r](C)p.r(C)p.[fl2r](C)p.r(C)p.[fl2r](U)p.r(G)p.[fl2r](U)p.r(C)p.[fl2r](C)p.r(C)p.[fl2r](C)p.r(G)p.[fl2r](C)p.r(U)p.[fl2r](U)p.r(T)p.r(T)}|RNA2{[fl2r](A)p.[fl2r](A)p.r(G)p.r(C)p.r(G)p.r(G)p.r(G)p.r(G)p.[fl2r](A)p.r(C)p.[fl2r](A)p.r(G)p.r(G)p.r(G)p.r(G)p.[fl2r](A)p.r(G)p.r(G)p.r(G)p.r(T)p.r(T)}$$$RNA1{StrandType:ss}|RNA2{StrandType:as}$”, the target mRNA knockdown stood at 41%.
In turn, “RNA1{[lna](G)p.[lna](C)p.[lna](T)p.r(G)p.r(A)p.r(C)p.[lna](C)p.r(C)p.r(U)p.[lna](G)p.r(A)p.r(A)p.r(G)p.[lna](T)p.[lna](T)p.r(C)p.r(A)p.r(U)p.r(C)p.[lna](T)p.[lna](T)}|RNA2{r(G)p.r(A)p.r(U)p.r(G)p.r(A)p.r(A)p.r(C)p.r(U)p.r(U)p.r(C)p.r(A)p.r(G)p.r(G)p.r(G)p.r(U)p.r(C)p.r(A)p.r(G)p.r(C)p.[lna](T)p.[lna](T)}$$$RNA1{StrandType:ss}|RNA2{StrandType:as}$” displayed a target mRNA knockdown of 0%.
Substance “RNA1{r(A)p.r(U)p.m(C)p.r(A)p.r(G)p.r(A)p.r(G)p.r(G)p.r(G)p.r(A)p.r(G)p.r(G)p.r(U)p.r(C)p.r(U)p.m(U)p.r(A)p.r(G)p.r(A)p.r(T)p.r(T)}|RNA2{r(U)p.r(C)p.m(U)p.r(A)p.r(A)p.r(G)p.r(A)p.r(C)p.r(C)p.r(U)p.r(C)p.r(C)p.r(C)p.r(U)p.r(C)p.m(U)p.r(G)p.r(A)p.r(U)p.r(T)p.r(T)}$$$RNA1{StrandType:ss}|RNA2{StrandType:as}$” came in with a target mRNA knockdown of 68%.
In turn, “RNA1{m(A)p.r(C)p.m(C)p.r(U)p.m(U)p.r(A)p.m(A)p.r(G)p.m(G)p.r(A)p.m(C)p.r(C)p.m(A)p.r(C)p.m(C)p.r(G)p.m(G)p.r(A)p.m(U)p.r(T)p.r(T)}|RNA2{r(A)p.r(U)p.r(C)p.m(C)p.r(G)p.r(G)p.r(U)p.r(G)p.r(G)p.r(U)p.r(C)p.r(C)p.m(U)p.r(U)p.m(A)p.r(A)p.m(G)p.r(G)p.m(U)p.r(T)p.r(T)}$$$RNA1{StrandType:ss}|RNA2{StrandType:as}$” returned a target mRNA knockdown of 52%.
On to “RNA1{m(U)p.r(C)p.m(C)p.r(U)p.m(A)p.r(G)p.m(C)p.r(U)p.m(G)p.r(U)p.m(C)p.r(U)p.m(U)p.r(G)p.m(U)p.r(C)p.m(C)p.r(C)p.m(U)p.r(T)p.r(T)}|RNA2{r(A)p.r(G)p.r(G)p.r(G)p.r(A)p.r(C)p.r(A)p.r(A)p.r(G)p.r(A)p.r(C)p.r(A)p.r(G)p.r(C)p.r(U)p.r(A)p.r(G)p.r(G)p.r(A)p.r(T)p.r(T)}$$$RNA1{StrandType:ss}|RNA2{StrandType:as}$”, for which the target mRNA knockdown came out at 27%.
As to “RNA1{[s4r](A)p.[s4r](A)p.[s4r](A)p.[s4r](C)p.r(A)p.r(U)p.r(G)p.r(C)p.r(A)p.r(G)p.r(A)p.r(A)p.r(A)p.r(A)p.r(U)p.[s4r](G)p.[s4r](C)p.[s4r](U)p.[s4r](G)p.r(T)p.r(T)}|RNA2{r(C)p.r(A)p.r(G)p.r(C)p.r(A)p.r(U)p.r(U)p.r(U)p.r(U)p.r(C)p.r(U)p.r(G)p.r(C)p.r(A)p.r(U)p.[s4r](G)p.[s4r](U)p.[s4r](U)p.[s4r](U)p.r(T)p.r(T)}$$$RNA1{StrandType:ss}|RNA2{StrandType:as}$”, the target mRNA knockdown is 91%.
